Results from US12077555B2, “STAT degraders and uses thereof” (Kymera Therapeutics, Inc., priority 2019, dated 2024).

What follows are compounds tested against STAT3 (Homo sapiens, UniProt P40763) (assay: STAT3 HiBiT degradation assay in transfected A549 cells). Conditions: A549, 24 h; read-out: STAT3 HiBiT A549 degradation 24 h: Average external-Abs DC50.
Assay type: cell-based
Parameters: expressed in transfected cells; host or cells: A549
Summary of the method: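 Degradation read as HiBiT-tagged STAT3 luminescence (Nano-Glo lytic reagent, 10 min, room temperature) following 24 h compound treatment of transfected A549 cells at 3-fold, 10 points. Percent remaining signal computed against controls and fitted with a four-parameter logistic; DC50 reported as letter bins (A <0.01 to D >1.0 µM).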

STAT3, sequence (P40763 whole entry): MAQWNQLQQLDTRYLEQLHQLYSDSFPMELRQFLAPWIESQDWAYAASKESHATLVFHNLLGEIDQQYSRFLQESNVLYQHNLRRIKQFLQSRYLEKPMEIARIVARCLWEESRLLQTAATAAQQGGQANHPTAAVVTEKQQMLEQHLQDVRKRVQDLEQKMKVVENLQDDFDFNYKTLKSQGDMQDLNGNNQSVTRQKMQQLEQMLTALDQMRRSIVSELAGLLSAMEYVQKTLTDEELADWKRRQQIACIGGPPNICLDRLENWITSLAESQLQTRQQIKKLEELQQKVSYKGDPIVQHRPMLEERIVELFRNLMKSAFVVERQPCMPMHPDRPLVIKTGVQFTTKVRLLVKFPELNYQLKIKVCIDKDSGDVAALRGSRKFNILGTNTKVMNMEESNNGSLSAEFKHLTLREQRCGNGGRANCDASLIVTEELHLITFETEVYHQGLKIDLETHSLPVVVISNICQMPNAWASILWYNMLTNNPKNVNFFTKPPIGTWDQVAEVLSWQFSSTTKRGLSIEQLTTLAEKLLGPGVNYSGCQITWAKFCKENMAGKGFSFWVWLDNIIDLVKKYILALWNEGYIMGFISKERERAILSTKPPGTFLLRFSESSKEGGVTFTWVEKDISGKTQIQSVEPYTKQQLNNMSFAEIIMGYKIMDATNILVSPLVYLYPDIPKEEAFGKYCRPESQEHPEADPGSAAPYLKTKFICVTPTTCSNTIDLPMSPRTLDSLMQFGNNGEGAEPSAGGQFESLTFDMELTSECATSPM

SMILES	DC50
Cn1c(=O)n(C2CCC(=O)NC2=O)c2ccc(N3CCN(CCC(=O)N4CC[C@H]5CC[C@@H](C(=O)N[C@@H](CCC(N)=O)C(=O)NC(c6ccccc6)c6ccccc6)N5C(=O)[C@@H](NC(=O)c5cc6cc(C(=O)P(=O)(O)O)ccc6[nH]5)C4)CC3)cc21 (stereo partly drawn) [Compound I-175, 2-[[(5S,8S,10aR)-8-[[(1S)-3-carbamoyl-1-(diphenylmethylcarbamoyl)propyl]carbamoyl]-3-(3-[4-[1-(2,6-dioxopiperidin-3-yl)-3-methyl-2-oxo-1,3-benzodiazol-5-yl]piperazin-1-yl]propanoyl)-6-oxo-octahydropyrrolo[1,2-a][1,5]diazocin-5-yl]carbamoyl]-1H-indole-5-carbonylphosphonic acid]	100 to 1000 nM
Cc1ncsc1-c1ccc(CNC(=O)C2C[C@@H](O)CN2C(=O)[C@@H](NC(=O)CC2CC(c3ccc(CO[C@H](C)[C@H](CCC(N)=O)NC(=O)[C@@H]4Cc5cccc6c5N4C(=O)[C@@H](NC(=O)c4cc5cc(C(=O)P(=O)(O)O)ccc5[nH]4)CC6)cc3)C2)C(C)(C)C)cc1 (stereo partly drawn) [Compound I-176]	> 1000 nM
Cn1c(=O)n(C2CCC(=O)NC2=O)c2ccc(C3CCN(CCC(=O)N4CC[C@H]5CC[C@@H](C(=O)N[C@@H](CCC(N)=O)C(=O)NC(c6ccccc6)c6ccccc6)N5C(=O)[C@@H](NC(=O)c5cc6cc(C(=O)P(=O)(O)O)ccc6[nH]5)C4)CC3)cc21 (stereo partly drawn) [Compound I-177, 2-[[(5S,8S,10aR)-8-[[(1S)-3-carbamoyl-1-(diphenylmethylcarbamoyl)propyl]carbamoyl]-3-(3-[4-[1-(2,6-dioxopiperidin-3-yl)-3-methyl-2-oxo-1,3-benzodiazol-5-yl]piperidin-1-yl]propanoyl)-6-oxo-octahydropyrrolo[1,2-a][1,5]diazocin-5-yl]carbamoyl]-1H-indole-5-carbonylphosphonic acid]	100 to 1000 nM
Cc1ncsc1-c1ccc(CNC(=O)[C@@H]2C[C@@H](O)CN2C(=O)[C@@H](NC(=O)CN2CCC(Cc3ccc(CO[C@H](C)[C@H](CCC(N)=O)NC(=O)[C@@H]4Cc5cccc6c5N4C(=O)[C@@H](NC(=O)c4cc5cc(C(=O)P(=O)(O)O)ccc5[nH]4)CC6)cc3)CC2)C(C)(C)C)cc1 [Compound I-178]	> 1000 nM
Cc1ncsc1-c1ccc(CNC(=O)[C@@H]2C[C@@H](O)CN2C(=O)[C@@H](NC(=O)CCCCc2ccc(CN(C)C[C@H](CCC(N)=O)NC(=O)[C@@H]3Cc4cccc5c4N3C(=O)[C@@H](NC(=O)c3cc4cc(C(=O)P(=O)(O)O)ccc4[nH]3)CC5)cc2)C(C)(C)C)cc1 [Compound I-179, 2-[[(2S,11S)-2-[[(2S)-4-carbamoyl-1-([[4-(4-[[(2S)-1-[(2S,4R)-4-hydroxy-2-([[4-(4-methyl-1,3-thiazol-5-yl)phenyl]methyl]carbamoyl)pyrrolidin-1-yl]-3,3-dimethyl-1-oxobutan-2-yl]carbamoyl]butyl)phenyl]methyl](methyl)amino)butan-2-yl]carbamoyl]-12-oxo-1-azatricyclo[6.4.1.0^[4,13]]trideca-4(13),5,7-trien-11-yl]carbamoyl]-1H-indole-5-carbonylphosphonic acid]	100 to 1000 nM
Cn1c(=O)n(C2CCC(=O)NC2=O)c2ccc(CCCCCCC(=O)N3CC[C@H]4CC[C@@H](C(=O)N[C@H](CCC(N)=O)C(=O)NC(c5ccccc5)c5ccccc5)N4C(=O)[C@@H](NC(=O)c4cc5cc(C(=O)P(=O)(O)O)ccc5[nH]4)C3)cc21 (stereo partly drawn) [Compound I-181, 2-[[(5S,8S,10aR)-8-[[(1R)-3-carbamoyl-1-(diphenylmethylcarbamoyl)propyl]carbamoyl]-3-[7-[1-(2,6-dioxopiperidin-3-yl)-3-methyl-2-oxo-1,3-benzodiazol-5-yl]heptanoyl]-6-oxo-octahydropyrrolo[1,2-a][1,5]diazocin-5-yl]carbamoyl]-1H-indole-5-carbonylphosphonic acid]	> 1000 nM
Cn1c(=O)n(C2CCC(=O)NC2=O)c2ccc(CCCCCCCc3cc4c5c(c3)C[C@@H](C(=O)N[C@@H](CCC(N)=O)C(=O)NC(c3ccccc3)c3ccccc3)N5C(=O)[C@@H](NC(=O)c3cc5cc(C(=O)P(=O)(O)O)ccc5[nH]3)CC4)cc21 (stereo partly drawn) [Compound I-182, 2-[[(2S,11S)-2-[[(1S)-3-carbamoyl-1-(diphenylmethylcarbamoyl)propyl]carbamoyl]-6-[7-[1-(2,6-dioxopiperidin-3-yl)-3-methyl-2-oxo-1,3-benzodiazol-5-yl]heptyl]-12-oxo-1-azatricyclo[6.4.1.0^[4,13]]trideca-4(13),5,7-trien-11-yl]carbamoyl]-1H-indole-5-carbonylphosphonic acid]	100 to 1000 nM
C[C@@H](OCc1ccccc1)[C@H](CCC(N)=O)NC(=O)[C@@H]1CC[C@@H]2CCN(C(=O)CCCCCCc3ccc4c(c3)n(C)c(=O)n4C3CCC(=O)NC3=O)C[C@H](NC(=O)c3cc4cc(C(=O)P(=O)(O)O)ccc4[nH]3)C(=O)N21 (stereo partly drawn) [Compound I-184, 2-[[(5S8S,10aR)-8-[[(3S,4R)-4-(benzyloxy)-1-carbamoylpentan-3-yl]carbamoyl]-3-[7-[1-(2,6-dioxopiperidin-3-yl)-3-methyl-2-oxo-1,3-benzodiazol-5-yl]heptanoyl]-6-oxo-octahydropyrrolo[1,2-a][1,5]diazocin-5-yl]carbamoyl]-1H-indole-5-carbonylphosphonic acid]	100 to 1000 nM
Cc1ncsc1-c1ccc([C@H](C)NC(=O)[C@@H]2C[C@@H](O)CN2C(=O)[C@@H](NC(=O)CCCc2cccc(OC[C@@H](NC(=O)[C@@H]3Cc4cccc5c4N3C(=O)[C@@H](NC(=O)c3cc4cc(C(=O)P(=O)(O)O)ccc4[nH]3)CC5)C(N)=O)c2)C(C)(C)C)cc1 [Compound I-194, diammonium 2-[[(2S,11S)-2-[[(2S)-4-carbamoyl-1-[3-(3-[[(2S)-1-[(2S,4R)-4-hydroxy-2-[[(1S)-1-[4-(4-methyl-1,3-thiazol-5-yl)phenyl]ethyl]carbamoyl]pyrrolidin-1-yl]-3,3-dimethyl-1-oxobutan-2-yl]carbamoyl]propyl)phenoxy]butan-2-yl]carbamoyl]-12-oxo-1-azatricyclo[6.4.1.0^[4,13]]trideca-4(13),5,7-trien-11-yl]carbamoyl]-1H-indole-5-carbonylphosphonate]	10 to 100 nM
Cn1c(=O)n(C2CCC(=O)NC2=O)c2ccc(C[C@H]3CC[C@@H](CC(=O)N4CC[C@H]5CC[C@@H](C(=O)N[C@@H](CCC(N)=O)C(=O)NCc6cccc7ccccc67)N5C(=O)[C@@H](NC(=O)c5cc6cc(C(=O)P(=O)(O)O)ccc6[nH]5)C4)CC3)cc21 (stereo partly drawn) [Compound I-197, 2-[[(5S,8S,10aR)-8-[[(1S)-3-carbamoyl-1-[(naphthalen-1-ylmethyl)carbamoyl]propyl]carbamoyl]-6-oxo-3-[2-[(1S,4S)-4-[[1-(2,6-dioxopiperidin-3-yl)-3-methyl-2-oxo-1,3-benzodiazol-5-yl]methyl]cyclohexyl]acetyl]-octahydropyrrolo[1,2-a][1,5]diazocin-5-yl]carbamoyl]-1H-indole-5-carbonylphosphonic acid]	100 to 1000 nM
Cn1c(=O)n(C2CCC(=O)NC2=O)c2ccc(CCCCCc3cc4c5c(c3)C[C@@H](C(=O)N[C@@H](CCC(N)=O)C(=O)NC(c3ccccc3)c3ccccc3)N5C(=O)[C@@H](NC(=O)c3cc5cc(C(=O)P(=O)(O)O)ccc5[nH]3)CC4)cc21 (stereo partly drawn) [Compound I-198, 2-[[(2S,11S)-2-[[(1S)-3-carbamoyl-1-(diphenylmethylcarbamoyl)propyl]carbamoyl]-6-[5-[1-(2,6-dioxopiperidin-3-yl)-3-methyl-2-oxo-1,3-benzodiazol-5-yl]pentyl]-12-oxo-1-azatricyclo[6.4.1.0^[4,13]]trideca-4(13),5,7-trien-11-yl]carbamoyl]-1H-indole-5-carbonylphosphonic acid]	100 to 1000 nM
Cc1ncsc1-c1ccc([C@H](C)NC(=O)[C@@H]2C[C@@H](O)CN2C(=O)[C@@H](NC(=O)CCCCCc2cc(OC[C@@H](NC(=O)[C@@H]3Cc4cccc5c4N3C(=O)[C@@H](NC(=O)c3cc4cc(C(=O)P(=O)(O)O)ccc4[nH]3)CC5)C(N)=O)ccc2Cl)C(C)(C)C)cc1 [Compound I-199, diammonium 2-[[(2S,11S)-2-[[(2S)-4-carbamoyl-1-[4-chloro-3-(5-[[(2S)-1-[(2S,4R)-4-hydroxy-2-[[(1S)-1-[4-(4-methyl-1,3-thiazol-5-yl)phenyl]ethyl]carbamoyl]pyrrolidin-1-yl]-3,3-dimethyl-1-oxobutan-2-yl]carbamoyl]pentyl)phenoxy]butan-2-yl]carbamoyl]-12-oxo-1-azatricyclo[6.4.1.0^[4,13]]trideca-4(13),5,7-trien-11-yl]carbamoyl]-1H-indole-5-carbonylphosphonate]	10 to 100 nM
Cc1ncsc1-c1ccc([C@H](C)NC(=O)[C@@H]2C[C@@H](O)CN2C(=O)[C@@H](NC(=O)CCCCCc2ccc(Cl)c(OC[C@H](CCC(N)=O)NC(=O)[C@@H]3Cc4cccc5c4N3C(=O)[C@@H](NC(=O)c3cc4cc(C(=O)P(=O)(O)O)ccc4[nH]3)CC5)c2)C(C)(C)C)cc1 [Compound I-200]	> 1000 nM
Cn1c(=O)n(C2CCC(=O)NC2=O)c2ccc(CC[C@H]3CC[C@@H](C(=O)N4CC[C@H]5CC[C@@H](C(=O)N[C@@H](CCC(N)=O)C(=O)NC(c6ccccc6)c6ccccc6)N5C(=O)[C@@H](NC(=O)c5cc6cc(C(=O)P(=O)(O)O)ccc6[nH]5)C4)CC3)cc21 (stereo partly drawn) [Compound I-202]	10 to 100 nM

Same assay, conditions: read-out: STAT3 HiBiT A549 degradation 24 h: Average external-Abs DC50; A549, 24 h

SMILES	DC50
C[C@@H](OCc1ccc(Br)cc1)[C@H](CCC(N)=O)NC(=O)[C@@H]1CC[C@@H]2CCN(C(=O)CCCCCCc3ccc4c(c3)n(C)c(=O)n4C3CCC(=O)NC3=O)C[C@H](NC(=O)c3cc4cc(C(=O)P(=O)(O)O)ccc4[nH]3)C(=O)N21 (stereo partly drawn) [Compound I-183, 2-[[(5S,8S,10aR)-8-[[(3S,4R)-4-[(4-bromophenyl)methoxy]-1-carbamoylpentan-3-yl]carbamoyl]-3-[7-[1-(2,6-dioxopiperidin-3-yl)-3-methyl-2-oxo-1,3-benzodiazol-5-yl]heptanoyl]-6-oxo-octahydropyrrolo[1,2-a][1,5]diazocin-5-yl]carbamoyl]-1H-indole-5-carbonylphosphonic acid]	100 to 1000 nM
